Data set [1] is described as follows: Half life in rat at 2.5 mg/kg, iv. The class given is ADME, organism-based. The arrangement: dose 2.5 mg/kg, route intravenous. To be noted: in vivo.
Data set [2] is described as follows: Clearance in rat at 2.5 mg/kg, iv. The class given is ADME, organism-based. The arrangement: dose 2.5 mg/kg, route intravenous. As to conditions: in vivo.
The test system of data set [3] is Rattus norvegicus. In words: Dose normalized AUC in rat at 2.5 mg/kg, iv. The class given is ADME, organism-based. Set-up: dose 2.5 mg/kg, route intravenous. To be noted: in vivo.
The target in data set [4] is T1, Heat shock protein HSP90 (Homo sapiens, UniProt P07900+P08238). Description: Displacement of biotinylated geldanamycin from human His-tagged Hsp90 by TR-FRET assay. The class given is protein assay. (Time-resolved FRET reads energy transfer from a long-lived donor to a nearby acceptor.)
Data set [5] deals with T1, Heat shock protein HSP90. In words: Inhibition of Hsp90 in human NCI-N87 cells assessed as Her2 degradation after 24 hrs by Western blot analysis. The class given is cell-based. (In general: Immunoblotting shows a protein as a band on a membrane.)
Data set [6] can be described thus: Apparent permeability across MDCK cells. The class given is ADME, cell-based, Canis lupus familiaris. To be noted: dog.
The nature of data set [7]: Oral bioavailability in rat at 2.5 mg/kg. The class given is ADME, organism-based. As to conditions: in vivo.
Data set [8] concerns the target T1, Heat shock protein HSP90. In words: Inhibition of Hsp90 in human A549 cells assessed as Raf1 degradation after 24 hrs by Western blot analysis. The class given is cell-based.
A short description of data set [9]: Half life in rat at 5 mg/kg, iv. The class given is ADME, organism-based. The arrangement: dose 5 mg/kg, route intravenous. To be noted: in vivo.
Data set [10] can be described thus: Clearance in rat at 5 mg/kg, iv. As to conditions: in vivo. The class given is ADME, organism-based. The arrangement: dose 5 mg/kg, route intravenous.
Data set [11] has as its system Rattus norvegicus. Description: Dose normalized AUC in rat at 5 mg/kg, iv. The class given is ADME, organism-based. Set-up: dose 5 mg/kg, route intravenous. As to conditions: in vivo.
Data set [12] is described as follows: Oral bioavailability in rat at 5 mg/kg. The class given is ADME, organism-based. To be noted: in vivo.
A short description of data set [13]: Oral bioavailability in rat. The class given is ADME, organism-based. To be noted: in vivo.
Data set [14] is described as follows: Drug metabolism in human liver microsomes at 15 uM after 30 mins. The class given is ADME, Microsome. As to conditions: read-out: Drug metabolism.
A short description of data set [15]: Clearance in iv dosed rat. The class given is ADME, organism-based. To be noted: in vivo.
Data set [16] can be described thus: Half life in iv dosed rat. The class given is ADME, organism-based. To be noted: in vivo.
Data set [17] deals with Rattus norvegicus. Description: Dose normalized AUC in iv dosed rat. To be noted: in vivo. The class given is ADME, organism-based.
Data set [18] can be described thus: Kinetic solubility of the compound. As to conditions: read-out: Kinetic_solubility. The class given is physicochemical.
The subject of data set [19] is Mus musculus. In words: Inhibition of Hsp90 in human COLO205 cells xenografted in mouse assessed as Her2 degradation at 100 mg/kg administered QD for 2 days measured 8 hrs post-last dose. The class given is functional. As to conditions: COLO 205. Background: In xenograft studies the graft and the host belong to different species.
Data set [20] has as its system Mus musculus. In words: Inhibition of Hsp90 in human COLO205 cells xenografted in mouse assessed as Raf1 degradation at 100 mg/kg administered QD for 2 days measured 8 hrs post-last dose. The class given is functional. As to conditions: COLO 205.

Broadly, the half-life is the time in which the quantity being followed falls by half. Low values mean fast loss, high ones slow loss. A word on the clearance: it is the volume of plasma or blood freed of the substance per unit of time. As a reminder, the IC50 is the concentration that inhibits the measured activity by half. By Papp is commonly meant a coefficient for how fast a substance crosses the barrier. A word on the bioavailability: it is dose-corrected exposure relative to a reference, in per cent. Low values mean little systemic uptake, high ones much systemic uptake. Usually inhibition in vivo stands for the percentage by which the read-out fell short of the control.

Converted amounts (≈) assume the structure as drawn. The source made the active and inactive calls. The rule behind the calls is not given here.

Turning to `Cc1cc(C(N)=O)c(NC2CCCC2)cc1C(=O)NC1CC2CCC(C1)N2c1ccc(C(=O)C2CC2)cn1` (stereo unspecified), in [1], the half-life was 1.1 h. Moreover, the clearance in data set [2] is 14.5 mL/min/kg. The AUC/dose with Rattus norvegicus [3] was found to be 2.26 µM·kg·h/mg. Further, the IC50 turned out to be 27 nM on Heat shock protein HSP90 [4] and 316 nM at Heat shock protein HSP90 [5]. Besides, the Papp in data set [6] was determined as 14.6 ×10⁻⁶ cm/s. Further, the bioavailability in data set [7] turned out to be 28%.
With `C[C@H](NC(=O)c1ccc(N2C3CCC2CC(NC(=O)c2ccc(C(N)=O)c(NC4CCC4)c2)C3)nc1)c1ccc(N2CCN(C)CC2)cc1` (stereo partly specified), the IC50 is 160 nM on Heat shock protein HSP90 [4] and 59 nM at Heat shock protein HSP90 [8]. Besides, the Papp in data set [6] stood at 0.46 ×10⁻⁶ cm/s.
Turning to `CCC(CC)Nc1cc(C(=O)NC2CC3CCC(C2)N3c2ccc(C(C)=O)cn2)c(C)cc1C(N)=O` (stereo unspecified), the IC50 at Heat shock protein HSP90 [4] was determined as 28 nM; on Heat shock protein HSP90 [5] it was 44 nM. Besides, the half-life in data set [9] is 1.7 h. Besides, in data set [10], the clearance is 51.8 mL/min/kg. Besides, in the data set with Rattus norvegicus [11], the AUC/dose turned out to be 0.6 µM·kg·h/mg. Besides, the bioavailability in data set [12] is 4%.
For `NC(=O)c1ccc(C(=O)NC2CC3CCC(C2)N3c2ccc(C(=O)NCc3ccccc3)cn2)cc1` (stereo unspecified), the IC50 was 445 nM on Heat shock protein HSP90 [4] and 5200 nM at Heat shock protein HSP90 [8]. Moreover, in [6], the Papp was found to be 0.06 ×10⁻⁶ cm/s.
The molecule `Cc1cc(C(N)=O)c(NC(C)C)cc1C(=O)NC1CC2CCC(C1)N2c1ccc(C(=O)C2CC2)cn1` (stereo unspecified) gave a half-life in data set [1] of 1.5 h. In [2], this molecule showed a clearance of 63.2 mL/min/kg. This molecule also gave an AUC/dose in the data set with Rattus norvegicus [3] of 0.57 µM·kg·h/mg. For the same molecule, the IC50 at Heat shock protein HSP90 [4] worked out at 21 nM; on Heat shock protein HSP90 [5] it was 130 nM. For the same molecule, in data set [6], the Papp amounted to 20.6 ×10⁻⁶ cm/s. The molecule also yielded a bioavailability in data set [7] of 33%.
Take `Cc1cc(C(N)=O)ccc1C(=O)NC1CC2CCC(C1)N2c1ccc(C(=O)NCc2ccccc2)cn1` (stereo unspecified): the IC50 on Heat shock protein HSP90 [4] was determined as 598 nM; on Heat shock protein HSP90 [8], 2700 nM. Further, in data set [6], the Papp came out at 0.21 ×10⁻⁶ cm/s.
Regarding `CC(C)C(=O)c1ccc(N2C3CCC2CC(NC(=O)c2ccc(C(N)=O)c(NCC4CC4)c2)C3)nc1` (stereo unspecified), the IC50 on Heat shock protein HSP90 [4] came out at 1140 nM; on Heat shock protein HSP90 [5], 1610 nM.
With `Cc1cc(C(=O)NC2CC3CCC(C2)N3c2ccc(C(=O)NCc3ccccc3)cn2)c(C)cc1C(N)=O` (stereo unspecified), the Papp in data set [6] worked out at 3 ×10⁻⁶ cm/s. Besides, the IC50 on Heat shock protein HSP90 [8] is above 10000 nM.
As to `COc1cccc(C(=O)NC2CC3CCC(C2)N3c2ccc(C(=O)N[C@H](C)c3ccccc3)cn2)c1C` (stereo partly specified), the IC50 was 7450 nM at Heat shock protein HSP90 [4] and above 10000 nM at Heat shock protein HSP90 [8].
In turn, `NC(=O)c1ccc(C(=O)NC2CC3CCC(C2)N3c2ccc(C(=O)NC3CCCC3)cn2)cc1NCC1CC1` (stereo unspecified) showed a half-life in [1] of 0.6 h. In data set [2], this molecule had a clearance of 63.5 mL/min/kg. In the data set on Rattus norvegicus [3], this molecule had an AUC/dose of 0.49 µM·kg·h/mg. Also, the figures for the 50% inhibitory concentration (IC50) on Heat shock protein HSP90 [4] and on Heat shock protein HSP90 [5] were 89 nM and 351 nM, respectively. Further, the Papp in [6] worked out at 4.8 ×10⁻⁶ cm/s. For the same molecule, the bioavailability in data set [7] worked out at 0%.
In data set [1], `Cc1cc(C(N)=O)c(NCC2CC2)cc1C(=O)NC1CC2CCC(C1)N2c1ccc(C(=O)C2CC2)cn1` (stereo unspecified) gave a half-life of 0.9 h. In data set [2], this molecule had a clearance of 19.7 mL/min/kg. In addition, the AUC/dose with Rattus norvegicus [3] turned out to be 1.7 µM·kg·h/mg. In addition, the figures for the 50% inhibitory concentration (IC50) at Heat shock protein HSP90 [4] and on Heat shock protein HSP90 [5] were 25 nM and 245 nM, respectively. Also, in data set [6], the Papp amounted to 22.3 ×10⁻⁶ cm/s. The molecule also yielded a bioavailability in [7] of 51%.
In [13], `COc1cccc(C(=O)NC2CC3CCC(C2)N3c2ccc(C(=O)N[C@@H](C)c3ccc(N4CCN(C)CC4)cc3)cn2)c1C` (stereo partly specified) registered a bioavailability of 30%. Also, the metabolised at 0.5 h, 15 µM in data set [14] was 37%. Besides, the values for the concentration for half-maximal inhibition (IC50) on Heat shock protein HSP90 [4] and on Heat shock protein HSP90 [8] were 200 nM and 374 nM, respectively. In [15], the clearance was 34.3 mL/min/kg. The Papp in data set [6] worked out at 6.3 ×10⁻⁶ cm/s. The molecule also had a half-life in [16] of 6.4 h. This molecule also came in with an AUC/dose in the data set with Rattus norvegicus [17] of 0.71 µM·kg·h/mg. Moreover, the solubility kinetic in data set [18] came to 447 µM (≈ 267 µg/mL).
Consider `CCC(CC)Nc1cc(C(=O)NC2CC3CCC(C2)N3c2ccc(C(=O)C3CC3)cn2)c(C)cc1C(N)=O` (stereo unspecified), for which, in data set [1], the half-life was 1.8 h. This molecule showed a clearance in data set [2] of 30.8 mL/min/kg. In the data set with Rattus norvegicus [3], this molecule yielded an AUC/dose of 1.04 µM·kg·h/mg. In addition, the IC50 on Heat shock protein HSP90 [4] worked out at 25 nM; at Heat shock protein HSP90 [5], 82 nM. In [6], the Papp stood at 14.3 ×10⁻⁶ cm/s. The molecule also displayed a bioavailability in data set [7] of 29%.
As to `C[C@H](NC(=O)c1ccc(N2C3CCC2CC(NC(=O)c2ccc(C(N)=O)c(NCC4CC4)c2)C3)nc1)c1ccc(N2CCN(C)CC2)cc1` (stereo partly specified), the IC50 is reported as 80 nM on Heat shock protein HSP90 [4] and 42 nM at Heat shock protein HSP90 [8]. The molecule also had a clearance in [15] of 157 mL/min/kg. In [6], the Papp stood at 0.15 ×10⁻⁶ cm/s.
As for `CO[C@H]1/C=C\C=C(/C)C(=O)NC2=CC(=O)C(NCCN(C)C)=C(C[C@@H](C)C[C@H](OC)[C@H](O)[C@@H](C)/C=C(\C)[C@@H]1OC(N)=O)C2=O` [ALVESPIMYCIN], the inhibition result in the data set on Mus musculus [19] is “inactive”. Also, the inhibition in vivo at 100 mg/kg with Mus musculus [20] was found to be 84%.

The values are drawn from ChEMBL document CHEMBL2203134, “Discovery of XL888: a novel tropane-derived small molecule inhibitor of HSP90” (Bioorg Med Chem Lett, 2012).
